Reference: doi:10.1101/743898v3 (biorxiv, 2019)
Residue numbers refer to the chain shown, from its start.

Experiments:
[1] = target: T1, ZmHK1 (tobacco membrane; fused to GFP) (Zea mays, UniProt Q9FRY7); assay: cytokinin binding assay, tobacco microsomal membranes
T1 sequence (Q9FRY7 1-974): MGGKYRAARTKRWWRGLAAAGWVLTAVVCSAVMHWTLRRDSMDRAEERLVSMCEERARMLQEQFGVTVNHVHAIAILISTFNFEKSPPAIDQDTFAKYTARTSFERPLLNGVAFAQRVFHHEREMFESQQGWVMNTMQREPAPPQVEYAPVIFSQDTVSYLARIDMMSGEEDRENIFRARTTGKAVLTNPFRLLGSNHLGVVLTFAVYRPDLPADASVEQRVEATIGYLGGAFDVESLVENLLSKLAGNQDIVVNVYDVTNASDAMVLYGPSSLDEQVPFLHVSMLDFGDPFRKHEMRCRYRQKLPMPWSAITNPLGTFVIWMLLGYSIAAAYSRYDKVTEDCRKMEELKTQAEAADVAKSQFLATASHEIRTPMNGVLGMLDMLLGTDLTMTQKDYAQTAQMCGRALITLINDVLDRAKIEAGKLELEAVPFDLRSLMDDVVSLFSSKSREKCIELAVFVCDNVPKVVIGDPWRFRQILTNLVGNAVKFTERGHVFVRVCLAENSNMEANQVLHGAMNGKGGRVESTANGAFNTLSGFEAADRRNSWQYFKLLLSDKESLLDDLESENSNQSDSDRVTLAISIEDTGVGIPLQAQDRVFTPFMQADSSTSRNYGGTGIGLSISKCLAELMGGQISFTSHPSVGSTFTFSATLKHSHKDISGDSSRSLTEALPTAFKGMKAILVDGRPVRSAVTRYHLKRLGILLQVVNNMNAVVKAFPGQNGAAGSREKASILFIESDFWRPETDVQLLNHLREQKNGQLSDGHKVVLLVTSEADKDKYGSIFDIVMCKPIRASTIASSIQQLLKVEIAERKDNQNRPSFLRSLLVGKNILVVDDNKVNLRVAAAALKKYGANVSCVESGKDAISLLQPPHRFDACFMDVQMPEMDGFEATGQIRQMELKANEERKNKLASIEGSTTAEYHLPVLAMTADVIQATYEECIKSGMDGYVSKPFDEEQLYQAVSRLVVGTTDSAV

[2] = target: T2, ZmHK1 (tobacco membrane; fused to GFP) (Zea mays, UniProt Q9FRY7, P190L); assay: as above
T2 sequence (Q9FRY7 1-974 P190L): T1 sequence (Q9FRY7 1-974) with P190L

Q: How did the Kd [1] turn out when `Nc1ncnc2nc[nH]c12` [Ade] was run?
A: > 10000 nM

Q: How did the Kd [1] turn out when `c1ccc(CNc2ncnc3nc[nH]c23)cc1` [BA] was run?
A: 1.42 nM

Q: Which Kd [1] does the source give for `C[C@H](CO)CCNc1ncnc2nc[nH]c12` [DZ] here?
A: 114 nM

Q: `O=C(Nc1ccccc1)Nc1cnns1` [TD] was tested. Which Kd [1] did it give?
A: 49.2 nM

Q: How did the Kd [2] turn out when `CC(C)=CCNc1ncnc2nc[nH]c12` [iP] was run?
A: 0.23 nM
